Results taken from patent US9192640B2, “Antiviral composition against flavivirus” (University Malaya, priority 2012, dated 2015).
≈ marks a conversion by molar mass, not a printed value.

Key:
Type in all cases: cell-based
[1] = tested on: Japanese encephalitis virus; assay: Antiviral activity on Japanese encephalitis virus replication, baicalein added post-infection; settings: 50 μg/ml, added post-infection to Vero cells, two days, vs non-treated cells
Protocol: In order to evaluate the antiviral activity of baicalein after virus attachment to cells, virus inoculum consisting of 200 FFU JE was added to the monolayer Vero cells and the virus was allowed to adsorp to the Vero cells for one hour at a temperature of 37° C. Unadsorped viruses were removed by rinsing the Vero cells with sterile PBS for two times. Different concentrations of baicalein (12.5 μg/ml, 25.0 μg/ml, 50.0 μg/ml and 100.0 μg/ml) were mixed with 1.5% CMC containing cell-growth medium supplemented with 2% FBS respectively before incubated at 37° C. for two days. Then, the number of viral foci was determined.

[2] = tested on: dengue virus type-2 (DENV-2); assay: Antiviral activity on DENV-2 replication, baicalein added post-infection
Protocol: (§1) In order to determine the prophylactic anti-dengue activity of baicalein, different concentrations of baicalein (6.25 μg/ml, 12.50 μg/ml, 25.0 μg/ml, and 50.0 μg/ml) were added to the Vero cell monolayers five hours before adding virus. After five hours of pre-infection treatment, the cells were washed twice with phosphate-buffered saline (PBS). Then, 200 FFU (focus-forming units) of dengue virus type-2 (DENV-2) was inoculated to the cells to produce infected cells. The infected cells were incubated at 37° C. for one hour. Then the infected cells were washed two times with PBS to eliminate the unadsorped viruses. Growth medium (the growing medium is but not limited to Eagle's minimal essential medium; EMEM) was supplemented with 2% fetal bovine serum (FBS), 1 mM non-essential amino acid solution, 1 mM L-glutamine solution, and 1.5% carboxymethyl cellulose (CMC) solution) was added to the infected cells in the microplate. The microplate was incubated at 37° C. for four days. The number of viral foci formed and the viral RNA level were determined. The prophylactic activity of baicalein against DENV-2 was measured by the decrease in the number of viral foci and reduction of viral RNA synthesis. The number of DENV-2 foci was counted using a stereomicroscope and the titer of virus was expressed as FFU. The percentage of foci reduction (RF %) compared against controls was calculated as follows: RF (%)=(C−T)×100/C, where, C is the mean of the number of foci for negative control (without baicalein) and T is the mean of the number of foci in treated wells. Reduction in the number of viral foci was further verified using quantitative RT-PCR (qRT-PCR) which determine the copy number of dengue virus specific RNA. […]
In order to evaluate the antiviral activity of baicalein after virus attachment to cells, virus inoculum consisting of 200 FFU DENV-2 was added to the monolayer Vero cells and the virus was allowed to adsorp to the Vero cells for one hour at a temperature of 37° C. […] Then, the number of viral foci and viral RNA level were measured.

[3] = tested on: dengue virus type-2 (DENV-2); assay: Direct virucidal activity against DENV-2
Protocol: as §1
In order to determine the direct virucidal activity of baicalein against DENV-2, DENV-2 suspension containing 200 FFU was incubated with different concentrations of baicalein (1.56 μg/ml, 3.12 μg/ml, 6.25 μg/ml, 12.50 μg/ml, 25.0 μg/ml) at 37° C. for two hours to produce a treated viral suspension. […] The number of viral foci formed and the viral RNA level were determined.

[4] = tested on: dengue virus type-2 (DENV-2); assay: Prophylactic anti-dengue activity, pre-treatment of Vero cells (foci reduction and qRT-PCR)
Protocol: (§2) In order to determine the prophylactic anti-dengue activity of baicalein, different concentrations of baicalein (6.25 μg/ml, 12.50 μg/ml, 25.0 μg/ml, and 50.0 μg/ml) were added to the Vero cell monolayers five hours before adding virus. After five hours of pre-infection treatment, the cells were washed twice with phosphate-buffered saline (PBS). Then, 200 FFU (focus-forming units) of dengue virus type-2 (DENV-2) was inoculated to the cells to produce infected cells. The infected cells were incubated at 37° C. for one hour. Then the infected cells were washed two times with PBS to eliminate the unadsorped viruses. Growth medium (the growing medium is but not limited to Eagle's minimal essential medium; EMEM) was supplemented with 2% fetal bovine serum (FBS), 1 mM non-essential amino acid solution, 1 mM L-glutamine solution, and 1.5% carboxymethyl cellulose (CMC) solution) was added to the infected cells in the microplate. The microplate was incubated at 37° C. for four days. The number of viral foci formed and the viral RNA level were determined. The prophylactic activity of baicalein against DENV-2 was measured by the decrease in the number of viral foci and reduction of viral RNA synthesis. The number of DENV-2 foci was counted using a stereomicroscope and the titer of virus was expressed as FFU. The percentage of foci reduction (RF %) compared against controls was calculated as follows: RF (%)=(C−T)×100/C, where, C is the mean of the number of foci for negative control (without baicalein) and T is the mean of the number of foci in treated wells. Reduction in the number of viral foci was further verified using quantitative RT-PCR (qRT-PCR) which determine the copy number of dengue virus specific RNA. The same procedure was repeated to Vero cells which were treated with only virus suspension without baicalein (non-treated cells) and this served as the untreated control.

[5] = tested on: dengue virus type-2 (DENV-2); assay: Inhibition of DENV-2 attachment to host cells, baicalein added simultaneously with virus
Protocol: as §2
Inhibition of DENV-2 attachment to host cells was evaluated by adding different concentrations (3.12 μg/ml, 6.25 μg/ml, 12.5 μg/ml, 25.0 μg/ml, and 50.0 μg/ml) of baicalein to Vero cells simultaneously with 200 FFU DENV-2. Then, the infected Vero cells were incubated at 37° C. for one hour in the presence of the respective concentration of baicalein. Following after, the infected Vero cells were washed two times using sterile PBS. Growth medium supplemented with 2% fetal bovine serum (FBS), 1 mM non-essential amino acid solution, 1 mM L-glutamine solution, and 1.5% carboxymethyl cellulose (CMC) solution) was added to the infected cells in the microplate. […] The number of viral foci formed and the viral RNA level were determined. The amount of viral RNA synthesis was determined using quantitative real time polymerase chain reaction amplification (qRT-PCR).

[6] = 50 μg/ml, added after virus adsorption to Vero cells, four days, vs non-treated cells
[7] = 12.5 μg/ml, DENV-2 suspension incubated with baicalein at 37° C. for two hours before infecting Vero cells

Q: Which results are given for `O=c1cc(-c2ccccc2)oc2cc(O)c(O)c(O)c12` [baicalein, 5,6,7-Trihydroxyflavone]?
A: reduction in number of Japanese encephalitis virus foci formed [1]: > 90%; decrease in level of DENV-2 RNA production [2, 6]: 84.9%±2.15; reduction in number of dengue virus foci formed [2, 6]: 78.3%; IC50 ([2]; Dengue virus, DENV2, Vero): 6.46 µg/mL (≈ 23.9 µM); decrease in level of DENV-2 RNA production [3, 7]: 99.2%±0.4; reduction in number of dengue virus foci formed [3, 7]: 97.93%; IC50 ([3]; Dengue virus, DENV2, 2 h): 1.55 µg/mL (≈ 5.74 µM); reduction in level of dengue virus type-2 RNA production ([4]; 50 μg/ml, Vero cells pre-treated five hours before infection, qRT-PCR, vs non-treated cells): 39.5%±0.8; reduction in number of dengue virus foci formed ([4]; 50 μg/ml, Vero cells pre-treated five hours before infection, vs non-treated cells): ~37%; IC50 ([4]; Dengue virus, DENV2, Vero, read-out: IC50 in pretreatment of cells): 109 µg/mL (≈ 403 µM); decrease in level of DENV-2 RNA production ([5]; 25 μg/ml, added simultaneously with DENV-2 to Vero cells, qRT-PCR, vs non-treated cells): 90.3%±1.6; reduction in number of dengue virus foci formed ([5]; 25 μg/ml, added simultaneously with DENV-2 to Vero cells, vs non-treated cells): 76.6%; decrease in DENV-2 RNA level at 50 μg/ml compared with 25 μg/ml ([5]; 50 μg/ml, added simultaneously with DENV-2): Higher decrease in RNA level was observed; IC50 ([5]; Dengue virus, DENV2, Vero): 7.14 µg/mL (≈ 26.4 µM)
